Measurements taken from patent EP4810035A1, “TREATMENT OF MODERATE TO SEVERE PLAQUE PSORIASIS” (Ganzhou Hemay Pharmaceutical, Co., Ltd, priority 2023, dated 2025).

Experiments:
[1] = tested on: patients with moderate to severe chronic plaque psoriasis; assay: Clinical study on patients (Example 3), 16-week core treatment period, 36-week extension, 4-week follow-up, placebo-controlled; format: in vivo, human
Protocol: This study selected patients with moderate to severe chronic plaque psoriasis as target subjects. Specific criteria were set for disease duration, severity and extent (psoriasis history ≥ 6 months, PASI score ≥ 12, sPGA score ≥ 3, and BSA ≥ 10). […] Primary efficacy endpoint: PASI-75 at week 16. […] Improvement in pruritus symptoms and changes in DLQI scores were also evaluated. The study consisted of a 16-week core treatment period, a 36-week extension treatment period and a 4-week follow-up period. Subjects in the experimental group received 60 mg BID of the compound in Example 2. During the extension treatment period, subjects in the placebo group also received 60 mg BID of the compound in Example 2.

[2] = tested on: Patients with plaque psoriasis; assay: Multicenter, randomized, double-blind, placebo-parallel controlled dose study in plaque psoriasis (Example 5); format: in vivo, human; details: for PASI-75 response rate (%): week 16
Protocol: This was a multicenter, randomized, double-blind, placebo-parallel controlled study. A total of 216 subjects were enrolled and randomized in a 1:1:1:1 ratio into the low-dose group (15 mg BID), mid-dose group (30 mg BID), high-dose group (60 mg BID) of the investigational drug, and the placebo group for a 16-week core treatment period. Upon completion of the core treatment, subjects in the low, mid and high-dose groups maintained their original doses for a 36-week extension treatment period. Subjects in the placebo group were switched to the mid-dose group (30 mg BID) for the 36-week extension treatment after completing the core period. All subjects completed a total of 52 weeks of treatment. Subjects who completed 52 weeks of treatment or discontinued prematurely should enter a 4-week follow-up period. […]

healthy Chinese subjects = assay: Phase I clinical study, multiple oral doses (Example 6); format: in vivo, human; details: multiple oral doses of 15 mg BID, 30 mg BID, 60 mg BID, 75 mg BID; 36 healthy Chinese subjects
Protocol: A total of 36 healthy Chinese subjects participated in a phase I clinical study, in which multiple oral doses of 15 mg BID, 30 mg BID, 60 mg BID, 75 mg BID of the compound in Example 2, or a placebo were administered, respectively.

[3] = tested on: subjects with moderate to severe plaque psoriasis; assay: Phase III study of moderate to severe plaque psoriasis (Example 4), double-blind placebo-controlled core period and open-label extension; details: for HADS Anxiety Score, Mean / HADS Depression Score, Mean: Experimental group (N=211)
Protocol: Tablets of the compound shown in Example 2 with a strength of 15 mg per tablet.
Control Drug: Placebo tablets matching the investigational drug with a strength of 0 mg per tablet.
• 1) Aged ≥ 18 years at the time of signing the Informed Consent Form (ICF), of any gender. • 2) Clinically diagnosed with stable plaque psoriasis, with a psoriasis history of ≥ 6 months (prior to randomization). • 3) The following requirements are met at screening and baseline: • a. Psoriasis Area and Severity Index (PASI) score ≥ 12; and • b. Static Physician Global Assessment (sPGA) score ≥ 3 (based on an sPGA 0-4 scale); and • c.
The treatment period consisted of two phases: during the double-blind core treatment period, subjects received 60 mg BID of the investigational drug or placebo for 16 weeks (week 0 to week 16); during the open-label extension treatment period, all subjects received 60 mg BID of the investigational drug for 36 weeks (week 16 to week 52).
A total of 305 subjects were enrolled (211 in the experimental group and 94 in the placebo group; including 105 T-SPOT positive subjects without active tuberculosis, 7 subjects with previously confirmed pulmonary tuberculosis, 76 subjects with a history of tuberculosis, and 1 subject with a history of tuberculous pleurisy).
The primary efficacy endpoint was the proportion of subjects achieving PASI 75 at week 16 compared to baseline. The key secondary efficacy endpoint was an sPGA 0/1 with a reduction of ≥2 points from baseline at week 16. Other secondary efficacy endpoints included the proportion of subjects achieving PASI-90, PASI-75, PASI-50, and both PASI-75 and sPGA 0/1 with a ≥ 2-point reduction from baseline at each visit, as well as the rate of change in BSA. Clinical observation and evaluation were conducted over the 16-week core treatment period, the 36-week extension treatment period and the 4-week follow-up period. The Hospital Anxiety and Depression Scale (HADS) was used as an assessment tool to observe and evaluate the anxiety and depression status of subjects at screening, the end of the 16-week core period and 4 weeks after the last dose.

[4] = 16-week core treatment period, 60 mg BID, N=211
[5] = by the end of the clinical study

SMILES: CCOc1cc([C@@H](CS(C)(=O)=O)N2C(=O)c3csc(NC(C)=O)c3C2=O)ccc1OC [Example 2, (S)-N-[5-[1-(3-ethoxy-4-methoxyphenyl)-2-(methylsulfonyl)ethyl]-4,6-dioxo-5,6-dihydro-5H-thieno[3,4-c]pyrrol-1-yl]acetamide]
- deaths ([1]; 60 mg BID): No deaths occurred
- drug-related serious adverse events ([1]; 60 mg BID): No drug-related serious adverse events occurred
- severity of adverse events leading to discontinuation ([1]; 60 mg BID): all Grade 1 or Grade 2
- severity of drug-related adverse events ([1]; 60 mg BID): primarily Grade 1 or Grade 2
- Secondary Efficacy Indicators, difference compared to the placebo group ([1]; 60 mg BID, P<0.0001): statistically significant differences
- DLQI (LS mean) [1, 4]: 5.38 points
- PASI-90 [1, 4]: 32.5%
- tuberculosis reactivation ([1]; T-SPOT positive but non-active TB subjects, by the end of the clinical study): no tuberculosis reactivation occurred
- occurrences of depression or suicidal ideation ([1]; by the end of the clinical study, any subjects): no occurrences of depression or suicidal ideation were observed
- proportion of subjects achieving PASI-75 ([1]; week 16, 60 mg BID, N=211): 53.6%
- rate difference between the two groups (PASI-75) ([1]; week 16, Example 2 group vs placebo group): 37.6%
- Chest imaging examinations ([1]; week 16 visit, T-SPOT positive but non-active TB subjects): no abnormalities
- DLQI score change from baseline, Mean ([2]; 15mg BID Group (N=54)): 4.9
- PASI-50 response rate (%) ([2]; 15mg BID Group (N=54)): 42.59%
- PASI-75 & sPGA 0/1 score (%) ([2]; 15mg BID Group (N=54)): 12.96%
- PASI-90 response rate (%) ([2]; 15mg BID Group (N=54)): 16.67%
- sPGA 0/1 score (%) ([2]; 15mg BID Group (N=54)): 14.81%
- DLQI score change from baseline, Mean ([2]; 30mg BID Group (N=54)): 6.1
- PASI-50 response rate (%) ([2]; 30mg BID Group (N=54)): 51.85%
- PASI-75 & sPGA 0/1 score (%) ([2]; 30mg BID Group (N=54)): 14.81%
- PASI-90 response rate (%) ([2]; 30mg BID Group (N=54)): 11.11%
- sPGA 0/1 score (%) ([2]; 30mg BID Group (N=54)): 14.81%
- DLQI score change from baseline, Mean ([2]; 60mg BID Group (N=54)): 7.1
- PASI-50 response rate (%) ([2]; 60mg BID Group (N=54)): 62.96%
- PASI-75 & sPGA 0/1 score (%) ([2]; 60mg BID Group (N=54)): 24.07%
- PASI-90 response rate (%) ([2]; 60mg BID Group (N=54)): 20.37%
- sPGA 0/1 score (%) ([2]; 60mg BID Group (N=54)): 24.07%
- Population pharmacokinetics and exposure-response analysis ([2]; 15, 30, 60 mg BID): the efficacy response rate increased with increasing doses
- death events ([2]; 15, 30, 60 mg BID): No death events occurred
- adverse events of depression or anxiety [2, 5]: no adverse events of depression or anxiety were reported
- occurrences of depression or suicidal ideation [2, 5]: no occurrences of depression or suicidal ideation were observed
- drug-related serious adverse events ([2]; core treatment period): No drug-related serious adverse events occurred
- Adverse events with an incidence of ≥10% ([2]; double-blind core treatment period (weeks 1 to 16)): diarrhea, nausea, headache, and fatigue
- drug-related adverse events with an incidence of ≥5% in any of the low, medium or high-dose groups ([2]; double-blind core treatment period (weeks 1 to 16), 15, 30, 60 mg BID): increased triglycerides, increased lipids, diarrhea, nausea, abdominal discomfort, hyperlipidemia, headache, and fatigue
- severity of adverse events leading to discontinuation ([2]; in vivo): Grade 1 or Grade 2
- PASI-75 and PASI-90 efficacy endpoints in a subject who had failed adalimumab therapy ([2]; one subject): also achieved the PASI-75 and PASI-90 efficacy endpoints
- PASI-50 efficacy endpoint in subjects who had failed prior biologic therapy ([2]; one subject failed adalimumab, one failed secukinumab, one failed TNF-α monoclonal antibody therapy): all achieved the PASI-50 efficacy endpoint
- PASI-75 response rate (%) ([2]; 15mg BID Group (N=54)): 18.52%
- PASI-75 response rate (%) ([2]; 30mg BID Group (N=54)): 25.93%
- PASI-75 response rate (%) ([2]; 60mg BID Group (N=54)): 46.30%
- safety and tolerability (healthy Chinese subjects): good safety and tolerability
- death events ([3]; 60 mg BID): No death events occurred
- incidence of adverse reaction: diarrhea ([3]; 60 mg BID): 11.4%
- incidence of adverse reaction: dizziness ([3]; 60 mg BID): 9.0%
- incidence of adverse reaction: fatigue ([3]; 60 mg BID): 8.5%
- incidence of adverse reaction: headache ([3]; 60 mg BID): 8.1%
- incidence of adverse reaction: hypertriglyceridemia ([3]; 60 mg BID): 5.7%
- incidence of adverse reaction: increased stool frequency ([3]; 60 mg BID): 10.4%
- incidence of adverse reaction: nausea ([3]; 60 mg BID): 23.7%
- incidence of adverse reaction: vomiting ([3]; 60 mg BID): 10.0%
- severity of adverse events leading to discontinuation ([3]; 60 mg BID): Grade 1 or Grade 2
- severity of the primary adverse reactions ([3]; 60 mg BID): Grade 1 or Grade 2
- time of occurrence of gastrointestinal reactions and nervous system abnormalities ([3]; 60 mg BID): mostly occurred within the first two weeks of administration
- tuberculosis activation (reactivation) ([3]; 105 T-SPOT positive subjects without active tuberculosis, 7 with previously confirmed pulmonary tuberculosis, 76 with history of tuberculosis, 1 with history of tuberculous pleurisy, by the end of the study): no instances of tuberculosis activation (reactivation) were observed
- HADS Anxiety Score, Mean ([3]; Week 16, 60 mg BID): 2.3
- HADS Depression Score, Mean ([3]; Week 16, 60 mg BID): 3.0
- HADS Anxiety Score, Mean ([3]; Week 56, 60 mg BID): 3.1
- HADS Depression Score, Mean ([3]; Week 56, 60 mg BID): 3.8
- chest X-ray or CT examinations ([3]; any of the subjects): No clinical abnormalities related to tuberculosis were found
- adverse events of depression or anxiety related to the investigational drug [3, 5]: No adverse events of depression or anxiety related to the investigational drug were observed
- difference between the experimental group and the placebo group in mean HADS anxiety scores and mean HADS depression scores [3, 5]: no statistically significant differences (P>0.05)
- occurrences of depression or suicidal ideation [3, 5]: no occurrences of depression or suicidal ideation
- drug-related serious adverse events ([3]; core treatment period, 60 mg BID): No drug-related serious adverse events occurred
- PASI-50 efficacy endpoint in subjects who had failed prior adalimumab treatment ([3]; two subjects, 60 mg BID): both achieved the PASI-50 efficacy endpoint
- BSA rate of change (%) ([3]; week 16, 60 mg BID, N=211): 65.0%
- Both PASI-75 and sPGA 0/1 and reduction of ≥2 points from baseline (%) ([3]; week 16, 60 mg BID, N=211): 30.3%
- DLQI change from baseline, (mean) ([3]; week 16, 60 mg BID, N=211): 5.38 points
- PASI-50 (%) ([3]; week 16, 60 mg BID, N=211): 82.7%
- PASI-75 (%) ([3]; week 16, 60 mg BID, N=211): 53.6%
- PASI-90 (%) ([3]; week 16, 60 mg BID, N=211): 32.5%
- sPGA score of 0/1 and reduction of ≥2 points from baseline (%) ([3]; week 16, 60 mg BID, N=211): 31.3%
